Assay: Biodistribution of I-123 Compound in rats (i.v. injection, excised organs gamma counted)
Type: in vivo, Sprague-Dawley male rats
Settings: for Blood/Brain: concentration ratio calculated from % dose/gram of wet tissue; for Biodistribution, Brain / Biodistribution, Heart / Biodistribution, Kidneys / Biodistribution, Liver / Biodistribution, Lungs / Biodistribution, Skin / Biodistribution, Spleen / Biodistribution, Stomach / Biodistribution, Thyroids / Biodistribution, Blood / Biodistribution, Muscle: average of 3; for Biodistribution, Blood: blood taken as 7% of body weight; for Biodistribution, Muscle: muscle taken as 40% of body weight
Procedure: Studies of distribution of the optimum radiopharmaceutical compound of the present invention in rats, the results of which are reflected in Table 1, were conducted according to standard practice in the pharmacological sciences, and therefore need not be described here in great detail. Nevertheless, for the sake of complete understanding of the present invention, some experimental details of these studies are briefly described below: Sprague-Dawley male rats (220-300 g) were injected intravenously (femoral vein) with a 0.2 ml solution (0.5-20. micro Ci) under light ether anaesthesia. At different time periods after the injection, the animals were sacrificed and organs of interest were excised and counted in a well counter. Percent dose was estimated by comparison of tissue counts to suitably diluted aliquots of the injected material. Total activities in blood and muscle were calculated by assuming that they are 7% and 40% of the body weight respectively. Sprague-Dawley male rats (220-300 g) under light ether anesthesia were injected intravenously with 0.2 ml of a saline solution containing 0.5-20 uCi of test compound (specific activity 0.5-1.0 uCi/mg). At different time periods after injection the animals were put under ether anesthesia and killed by cardiactomy. The organs of interest were excised, weighed and counted in a Beckman automatic gamma counter (Model 4000). The % dose/organ was determined by comparison of tissue radioactivity levels to suitably diluted aliquots of the injected dose. The approximate % dose/g of wet tissue or organ can be calculated by dividing the % dose/organ by the mean organ weight (mean weights: heart 0.85 g, brain 1.65 g, blood 18 g, liver 9 g, kidneys 1.9 g, lungs 1.6 g).

[1] = 2 min after i.v. injection, rats
[2] = 1 hr after i.v. injection, rats

## Cc1cc([123I])cc(CN(C)CCCN(C)C)c1O [I-123 Compound, N,N,N-trimethyl-N'[2-hydroxy-3-methyl-5-iodobenzyl]-1,3-propanediamines]
2 min after i.v. injection
  Blood/Brain: 14.84
[1]
  Biodistribution, Brain: 2.74 % dose/organ
  Biodistribution, Heart: 2.71 % dose/organ
  Biodistribution, Kidneys: 8.06 % dose/organ
  Biodistribution, Liver: 5.52 % dose/organ
  Biodistribution, Lungs: 36.53 % dose/organ
  Biodistribution, Skin: 6.73 % dose/organ
  Biodistribution, Spleen: 0.72 % dose/organ
  Biodistribution, Stomach: 0.80 % dose/organ
  Biodistribution, Thyroids: 0.59 % dose/organ
  Biodistribution, Blood: 2.02 % dose/organ
  Biodistribution, Muscle: 5.66 % dose/organ
1 hr after i.v. injection
  Blood/Brain: 32.18
[2]
  Biodistribution, Brain: 2.50 % dose/organ
  Biodistribution, Heart: 0.29 % dose/organ
  Biodistribution, Kidneys: 2.87 % dose/organ
  Biodistribution, Liver: 4.68 % dose/organ
  Biodistribution, Lungs: 18.25 % dose/organ
  Biodistribution, Skin: 9.21 % dose/organ
  Biodistribution, Spleen: 1.58 % dose/organ
  Biodistribution, Stomach: 0.93 % dose/organ
  Biodistribution, Thyroids: 0.06 % dose/organ
  Biodistribution, Blood: 0.85 % dose/organ
  Biodistribution, Muscle: 12.77 % dose/organ
rats, i.v., Table 1, in words
  initial uptake in the brain, lung and liver: high initial uptake
  persistence of uptake in the brain, lung and liver: persists sufficiently to allow imaging
